Key:
[1] = Solubility of CVT-3146 in water and in MBA-containing composition; format: physicochemical; conditions: methylboronic acid co-solvent, dependence on pH
Experimental: A preferred A2A receptor agonist of this invention is CVT-3146. CVT-3146 has solubility in water of about 50 micrograms/mL. Therefore, CVT-3146 can be dissolved and administered in water so long as the desired weight amount of CVT-3146 can be administered in an acceptable volume. For example, a preferred dose of about 400 micrograms can be administered in 8 mL of water. If this volume is too great for administration purposes, or if the pharmaceutical composition will be stored at other than room temperature (RT), then additional ingredients can be added to the composition to increase the solubility of CVT-3146 in the composition and/or to provide the resulting pharmaceutical composition with other improved properties such as improved stability and storage properties. Pharmaceutical compositions of this invention that include CVT-3146 may include up to about 1 milligram/mL of CVT-3146. It is preferred that pharmaceutical compositions including CVT-3146 include from about 50 to about 250 micrograms/mL, and more preferably from about 50 to 150 micrograms/mL of CVT-3146.
In order to improve their solubility and storage properties, A2A receptor agonists of this invention can be administered in a pharmaceutical composition including a methylboronic acid (MBA) co-solvent. The methylboronic acid is added to the pharmaceutical composition to improve agonist solubility and shelf life. […]

[2] = Example 3: maximum tolerated dose and safety of single IV bolus CVT-3146 in healthy volunteers, supine and standing; format: in vivo; conditions: 30 μg/kg supine, 4 subjects per group
Experimental: This Example is a study performed to evaluate (1) the maximum tolerated dose of CVT-3146 and (2) the pharmacokinetic profile of CVT-3146 in healthy volunteers, after a single IV bolus dose.
The study was performed using thirty-six healthy, non-smoking male subjects between the ages of 18 and 59 and within 15% of ideal body weight.
The study was performed in phase 1, single center, double-blind, randomized, placebo-controlled, crossover, ascending dose study. Randomization was to CVT-3146 or placebo, in both supine and standing positions.
CVT-3146 was administered as an IV bolus (20, seconds) in ascending doses of […], 10, 20, and 30 μg/kg.
Subjects received either CVT-3146 of placebo on Day 1 supine, then crossover treatment on Day 2 supine. On Day 3, subjects received CVT-3146 or placebo standing, then crossover treatment on Day 4 standing.
Patient safety was monitored by ECG, laboratory assessments, and collection of vital signs and adverse events.
Pharmacodynamics: • The study evaluated the relationship of changes in heart rate to dose in both standing and supine positions and plasma concentration in the supine position. Results

[3] = system: blood flow velocity in LCX, BA, FA and PA; experiment: Example 4: blood flow velocity (APV) in various vascular beds in the anesthetized dog; format: in vivo; conditions: 1.0 μg/kg iv bolus
Source text: CVT-3146 is a novel selective A2A adenosine receptor agonist being developed as a pharmacologic stressor for radionuclide myocardial perfusion imaging. […] The goal of this study was to determine the differential effects of CVT-3146 on blood flow velocity in various vascular beds.
The effects of CVT-3146 were quantified as the average peak blood flow velocity (APV) using intravascular Doppler transducer tipped catheter. Heart rate (HR) and systemic arterial blood pressure (BP) were also monitored.

[4] = system: myocardial ischemia detection (SPECT MPI); experiment: Example 6: stress/rest SPECT myocardial perfusion imaging, CVT-3146 versus adenosine; format: in vivo, human; conditions: 400 mcg vs 500 mcg
Source text: Pharmacologic stress SPECT myocardial perfusion imaging (MPI) with adenosine (A) is a well-accepted technique, with excellent diagnostic and prognostic value and proven safety. However, side effects are common and AV nodal block and severe flushing are poorly tolerated. Agents such as CVT-3146 selectively act upon the A2A adenosine receptor and avoid stimulation of other receptor subtypes which may prevent such adverse reactions.
To determine the ability of CVT-3146 to produce coronary hyperemia and accurately detect CAD, 35 subjects (26 men, 9 women; 67±10 years) underwent both A and CVT-3146 stress/rest MPI, with 10.0±9.1 days between studies. […] CVT-3146 [400 mcg (n=18), 500 mcg (n=17)] was administered as an IV bolus immediately followed by a saline flush, and then a Tc-99m radiopharmaceutical [sestamibi (n=34), tetrofosmin (n=1)]. SPECT images were uniformly processed, intermixed with control studies (normal and fixed-only defects), and interpreted by three observers in a blinded fashion using a 17-segment model. Quantitative analysis was also performed using 4D MSPECT. In addition to three separate readings, a consensus interpretation was performed and then a direct, same-screen comparison of A and CVT-3146 images undertaken to determine relative differences, using 5 regions per study.

[5] = Example 7: adverse effects and hemodynamic effects of CVT-3146 as pharmacologic stress agent in MPI protocol; format: in vivo, human
Source text: CVT-3146 is a selective A2A adenosine receptor agonist that produces coronary hyperemia and potentially less adverse effects due to its limited stimulation of receptor subtypes not involved with coronary vasodilation. This study evaluated the effectiveness of CVT-3146 as a pharmacologic stress agent.
36 subjects (27 men, 9 women; 67±10 years) were studied with two doses of CVT-3146 [400 mcg (n=18), 500 mcg (n=18)], administered as an IV bolus, as part of a pharmacologic stress myocardial perfusion imaging protocol.

[6] = 36 subjects, 400 or 500 mcg IV bolus

CNC(=O)c1cnn(-c2nc(N)c3ncn([C@@H]4O[C@H](CO)[C@@H](O)[C@H]4O)c3n2)c1 [CVT-3146, (1-{9-[(4S,2R,3R,5R)-3,4-dihydroxy-5-(hydroxymethyl)oxolan-2-yl]-6-aminopurin-2-yl}pyrazol-4-yl)-N-methylcarboxamide]
solubility in a pharmaceutical composition including MBA [1]: tends to decrease as the composition pH drops towards neutral
Dizziness labeled as severe, number of subjects with AE [2]: 0
Palpitation labeled as severe, number of subjects with AE [2]: 2
Syncope labeled as severe, number of subjects with AE [2]: 0
decrease in BP [3]: 12 mmHg
time for effect on blood flow velocity to dissipate [3]: less than ten
transient increase in HR [3]: 16 bpm
dose-dependent effect on ischemia detection [4]: No dose-dependent effect
incidence of adverse effects (AE) [5, 6]: 72%
patients with adverse effects (AE) [5, 6]: 26 pts
tolerability ([5]; 400 and 500 mcg IV bolus): well-tolerated and has acceptable hemodynamic effects
Diastolic BP, peak Absolute Change ([5]; 400 and 500 mcg, mean±S.D.): −5.4 ± 7.2 mmHg
Diastolic BP, peak Relative Change ([5]; 400 and 500 mcg, mean±S.D.): −7.9% ± 10.5%
Heart Rate, peak Absolute Change ([5]; 400 and 500 mcg, mean±S.D.): +21.9 ± 10.4 beats per min
Heart Rate, peak Relative Change ([5]; 400 and 500 mcg, mean±S.D.): +36.7% + 21.0%
Systolic BP, peak Absolute Change ([5]; 400 and 500 mcg, mean±S.D.): −5.9 ± 10.7 mmHg
Systolic BP, peak Relative Change ([5]; 400 and 500 mcg, mean±S.D.): −4.1% ± 7.6%
serious AE ([5]; both doses): One serious AE occurred, with exacerbation of a migraine headache
share of AEs mild to moderate ([5]; both doses): 96%
share of AEs resolved within 15 min without treatment ([5]; both doses): 91%
time of peak hemodynamic effect, heart rate (HR) ([5]; both doses): ≤ 0.033 h
time of peak hemodynamic effect, systolic blood pressure (BP) ([5]; both doses): 4 min
deviation of BP from baseline ([5]; thirty min after CVT-3146): < 2%
